Read-outs that look alike come from different tables or passages of the source.
How the values were obtained:
CCRF-CEM = tested on: CCRF-CEM
Description: Statistical analyses. Descriptive statistics and significance testing were performed using Microsoft Excel. The Excel function “t.test” was used for Student's T-testing (two-tailed, type-2). Propagated standard deviations were calculated using standard methods. Correlation analyses were performed using Sigmaplot 11 software. […]
Due to the confounding effect of in vitro fatty acid conversion, correlation analyses were used to identify significant relationships between absolute levels of specific sphingolipids and cytotoxicity. […]

COG-LL-332 = format: cell-based, human
Description: (§1) Statistical analyses. […] Propagated standard deviations were calculated using standard methods. Correlation analyses were performed using Sigmaplot 11 software.

COG-LL-317 = format: cell-based, human
Description: as §1

MOLT-4 = format: cell-based, human
Description: as §1

| SMILES | Pearson Coef. (r), sphingolipid level vs cytotoxicity (CCRF-CEM) | Spearman Coef. (ρ), sphingolipid level vs cytotoxicity (CCRF-CEM) | Pearson Coefficient (r), sphingolipid level vs cytotoxicity (COG-LL-332) | Spearman Coefficient (ρ), sphingolipid level vs cytotoxicity (COG-LL-332) | Pearson Coef. (r), sphingolipid level vs cytotoxicity (COG-LL-317) | Spearman Coef. (ρ), sphingolipid level vs cytotoxicity (COG-LL-317) | Pearson Coef. (r), sphingolipid level vs cytotoxicity (MOLT-4) | Spearman Coef. (ρ), sphingolipid level vs cytotoxicity (MOLT-4) | Pearson Coef. (r), sphingolipid level vs cytotoxicity (CCRF-CEM; CCRF-CEM) | Spearman Coef. (ρ), sphingolipid level vs cytotoxicity (CCRF-CEM; CCRF-CEM) |
| --- | --- | --- | --- | --- | --- | --- | --- | --- | --- | --- |
| CCCCCCCCCCCCC/C=C/[C@@H](O)[C@@H](N)CO [Sphingosine] | 0.02 | −0.19 |  |  |  |  |  |  |  |  |
| CCCCCCCCCCCCCC=CC(O)C(CO)NC(=O)CCCCCCCCCCCCCCCCC (stereo not shown) [C18:0-Cer] | 0.14 | 0.07 | −0.54 | −0.38 | −0.45 | −0.60 | −0.33 | −0.45 |  |  |
| CCCCCCCCCCCCCC=CC(O)C(CO)NC(=O)CCCCCCCCCCCCCCCCCCCCC (stereo not shown) [C22:0-Cer] | 0.42 | 0.48 | 0.45 | 0 | 0.59 | 0.33 | 0.46 | 0.31 |  |  |
| CCCCCCCCCCCCCC=CC(O)C(CO)NC(=O)CCCCCCCCCCCCCCCCCCCCCCC (stereo not shown) [C24:0-Cer] | 0.40 | 0.41 | 0.39 | 0.38 | 0.48 | 0.25 | 0.33 | 0 |  |  |
| CCCCCCCCCCCCCC=CC(O)C(CO)NC(=O)CCCCCCCCCCCCCCCCCCC (stereo not shown) [C20:0-Cer] | 0.01 | 0.07 | −0.79 | −0.91 | −0.63 | −0.81 | −0.46 | −0.52 |  |  |
| CCCCCCCCCCCCCCC[C@@H](O)[C@@H](N)COP(=O)(O)O [Sphingaine-1-P] | 0.44 | 0.38 |  |  |  |  |  |  |  |  |
| CCCCCCCCCCCCCC=CC(O)C(CO)NC(=O)CCCCCCCCCCCCCCC (stereo not shown) [C16:0-Cer] | 0.25 | 0.03 | −0.09 | −0.05 | −0.48 | −0.50 | −0.62 | −0.76 |  |  |
| CCCCCCCCCCCCCCC[C@@H](O)[C@H](CO)NC(=O)CCCCCCCCCCCCC [C14:0-DHCer] | 0.12 | 0.20 | 0.06 | 0.18 | 0.16 | 0.10 | 0.13 | 0.35 |  |  |
| CCCCCCCCC=CCCCCCCCC(=O)NC(CO)C(O)C=CCCCCCCCCCCCCC (stereo not shown) [C18:1-Cer] | 0.11 | 0.10 | −0.45 | −0.30 | −0.50 | −0.59 | −0.52 | −0.59 |  |  |
| CCCCCCCCCCCCC/C=C/[C@@H](O)[C@H](CO)NC(=O)CCCCCCCCCCCCC [C14:0-Cer] | 0.03 | 0.01 | −0.32 | −0.28 | −0.54 | −0.43 | −0.53 | −0.48 |  |  |
| CCCCCCCCCCCCCCCCCCCCCCCC(=O)N[C@@H](CO)[C@H](O)CCCCCCCCCCCCCCC [C24:0-DHCer] | 0.58 | 0.84 | 0.74 | 0.83 | 0.89 | 0.91 | 0.79 | 0.88 |  |  |
| CCCCCCCCCCCCCCCCCCCC(=O)N[C@@H](CO)[C@H](O)CCCCCCCCCCCCCCC [C20:0-DHCer] | 0.20 | 0.32 | −0.09 | 0 | −0.04 | 0.14 | 0.12 | 0.14 |  |  |
| CCCCCCCCCCCCCCCCCCCCCC(=O)N[C@@H](CO)[C@H](O)CCCCCCCCCCCCCCC [C22:0-DHCer] | 0.67 | 0.75 | 0.73 | 0.81 | 0.86 | 0.79 | 0.79 | 0.91 |  |  |
| CCCCCCCCCCCCC/C=C/[C@@H](O)[C@@H](N)COP(=O)(O)O [Sphingosine-1-P] |  |  |  |  |  |  |  |  | −0.07 | 0.27 |

— patent US20120121691A1, “Method for Increasing the Production of a Specific ACYL-Chain Dihydroceramide(s) for Improving the Effectiveness of Cancer Treatments” (priority 2010, published 2012)
